HELM strings list units from the 5' end as sugar, base in round brackets, then linkage (d deoxyribose, r ribose, m 2'-O-methyl, p phosphodiester). Strings are as the collection lists them; they lack the last nucleoside at the 3' end of the tested compound. [moe] = 2'-O-(2-methoxyethyl) (MOE); [sp] = phosphorothioate linkage; [m5C] = 5-methylcytosine
Each substance was assayed against ATXN2 (assay: mouse, dose not given). Details: ASO.
“RNA1{[moe](T)[sp].[moe](A)p.[moe]([m5C])p.[moe](T)p.[moe]([m5C])p.d(T)[sp].d([m5C])[sp].d([m5C])[sp].d(A)[sp].d(T)[sp].d(T)[sp].d(A)[sp].d(T)[sp].d(T)[sp].d(T)[sp].[moe]([m5C])p.[moe](T)p.[moe](T)[sp].[moe]([m5C])}$$$$ (last 3' nucleoside missing)” was tested, and the 3 h FOB score was 2.25 score 0-7. “RNA1{[moe](T)[sp].[moe](A)p.[moe]([m5C])p.[moe](T)p.d(T)[sp].d(T)[sp].d(T)[sp].d([m5C])[sp].d(T)[sp].d([m5C])[sp].d(A)[sp].d(T)[sp].d(G)[sp].d(T)[sp].[moe](G)p.[moe]([m5C])p.[moe](G)p.[moe](G)[sp].[moe]([m5C])}$$$$ (last 3' nucleoside missing)” gave a 3 h FOB score of 1.75 score 0-7. “RNA1{[moe](T)[sp].[moe](G)[sp].[moe]([m5C])[sp].[moe](A)[sp].[moe](T)[sp].d(A)[sp].d(G)[sp].d(A)[sp].d(T)[sp].d(T)[sp].d([m5C])[sp].d([m5C])[sp].d(A)[sp].d(T)[sp].d([m5C])[sp].[moe](A)[sp].[moe](A)[sp].[moe](A)[sp].[moe](A)}$$$$ (last 3' nucleoside missing)” showed a 3 h FOB score of 7 score 0-7. Substance “RNA1{[moe](T)[sp].[moe](G)p.[moe](A)p.[moe](G)p.[moe](T)p.d(T)[sp].d([m5C])[sp].d(A)[sp].d([m5C])[sp].d([m5C])[sp].d(T)[sp].d(G)[sp].d([m5C])[sp].d(A)[sp].d(T)[sp].[moe]([m5C])p.[moe]([m5C])p.[moe]([m5C])[sp].[moe](A)}$$$$ (last 3' nucleoside missing)” has a 3 h FOB score of 5.75 score 0-7. In the case of “RNA1{[moe](T)[sp].[moe](G)p.[moe](A)p.[moe](T)p.[moe]([m5C])p.d(T)[sp].d(T)[sp].d(G)[sp].d(T)[sp].d(G)[sp].d(T)[sp].d(A)[sp].d(T)[sp].d(A)[sp].d(T)[sp].[moe](A)p.[moe](T)p.[moe](T)[sp].[moe](A)}$$$$ (last 3' nucleoside missing)”, the 3 h FOB score is reported as 6 score 0-7. Work on “RNA1{[moe](T)[sp].[moe](G)p.[moe](G)p.[moe](A)p.[moe](T)[sp].d(T)[sp].d([m5C])[sp].d(T)[sp].d(G)[sp].d(T)[sp].d(A)[sp].d([m5C])[sp].d(T)[sp].[moe](T)p.[moe](T)p.[moe](T)[sp].[moe]([m5C])}$$$$ (last 3' nucleoside missing)” yielded a 3 h FOB score of 5.25 score 0-7. With “RNA1{[moe](T)[sp].[moe](G)p.[moe](G)p.[moe](A)p.[moe](T)p.[moe](T)p.d([m5C])[sp].d(T)[sp].d(G)[sp].d(T)[sp].d(A)[sp].d([m5C])[sp].d(T)[sp].d(T)[sp].d(T)[sp].d(T)[sp].[moe]([m5C])p.[moe](T)[sp].[moe]([m5C])}$$$$ (last 3' nucleoside missing)” the 3 h FOB score was 1 score 0-7. With “RNA1{[moe](T)[sp].[moe](G)p.[moe](G)p.[moe](A)p.[moe](T)p.d(T)[sp].d([m5C])[sp].d(T)[sp].d(G)[sp].d(T)[sp].d(A)[sp].d([m5C])[sp].d(T)[sp].d(T)[sp].d(T)[sp].[moe](T)p.[moe]([m5C])p.[moe](T)[sp].[moe]([m5C])}$$$$ (last 3' nucleoside missing)” the 3 h FOB score was 5.25 score 0-7. With “RNA1{[moe](T)[sp].[moe](G)p.[moe](G)p.[moe](A)p.d(T)[sp].d(T)[sp].d([m5C])[sp].d(T)[sp].d(G)[sp].d(T)[sp].d(A)[sp].d([m5C])[sp].d(T)[sp].d(T)[sp].[moe](T)p.[moe](T)p.[moe]([m5C])p.[moe](T)[sp].[moe]([m5C])}$$$$ (last 3' nucleoside missing)” the 3 h FOB score was 3.5 score 0-7. “RNA1{[moe](T)[sp].[moe](G)p.[moe](G)p.[moe](T)p.[moe](G)[sp].d(G)[sp].d(T)[sp].d(G)[sp].d(T)[sp].d(G)[sp].d([m5C])[sp].d(G)[sp].d([m5C])[sp].[moe](A)p.[moe](T)p.[moe](G)[sp].[moe](T)}$$$$ (last 3' nucleoside missing)” was tested, and the 3 h FOB score was 6.25 score 0-7. With “RNA1{[moe](T)[sp].[moe](G)p.[moe](G)p.[moe](T)p.[moe](G)p.[moe](G)p.d(T)[sp].d(G)[sp].d(T)[sp].d(G)[sp].d([m5C])[sp].d(G)[sp].d([m5C])[sp].d(A)[sp].d(T)[sp].d(G)[sp].[moe](T)p.[moe](A)[sp].[moe](G)}$$$$ (last 3' nucleoside missing)” the 3 h FOB score was 7 score 0-7. Substance “RNA1{[moe](T)[sp].[moe](G)p.[moe](G)p.[moe](T)p.[moe](G)p.d(G)[sp].d(T)[sp].d(G)[sp].d(T)[sp].d(G)[sp].d([m5C])[sp].d(G)[sp].d([m5C])[sp].d(A)[sp].d(T)[sp].[moe](G)p.[moe](T)p.[moe](A)[sp].[moe](G)}$$$$ (last 3' nucleoside missing)” has a 3 h FOB score of 6.5 score 0-7. “RNA1{[moe](T)[sp].[moe](G)p.[moe](G)p.[moe](T)p.[moe](T)p.d([m5C])[sp].d([m5C])[sp].d(T)[sp].d(T)[sp].d(A)[sp].d([m5C])[sp].d(A)[sp].d(A)[sp].d(T)[sp].d(T)[sp].[moe](A)p.[moe](T)p.[moe]([m5C])[sp].[moe](T)}$$$$ (last 3' nucleoside missing)” showed a 3 h FOB score of 0 score 0-7. “RNA1{[moe](T)[sp].[moe](G)p.[moe](G)p.[moe](T)p.d(G)[sp].d(G)[sp].d(T)[sp].d(G)[sp].d(T)[sp].d(G)[sp].d([m5C])[sp].d(G)[sp].d([m5C])[sp].d(A)[sp].[moe](T)p.[moe](G)p.[moe](T)p.[moe](A)[sp].[moe](G)}$$$$ (last 3' nucleoside missing)” was tested, and the 3 h FOB score was 6.75 score 0-7. “RNA1{[moe](T)[sp].[moe](G)p.[moe](T)p.[moe](A)[sp].[moe]([m5C])[sp].d(T)[sp].d(T)[sp].d([m5C])[sp].d(A)[sp].d([m5C])[sp].d(A)[sp].d(T)[sp].d(T)[sp].d(T)[sp].d(G)[sp].[moe](G)p.[moe](A)p.[moe](G)[sp].[moe]([m5C])}$$$$ (last 3' nucleoside missing)” showed a 3 h FOB score of 3 score 0-7. With “RNA1{[moe](T)[sp].[moe](G)p.[moe](T)p.[moe](A)p.[moe]([m5C])[sp].d(T)[sp].d(T)[sp].d(T)[sp].d(T)[sp].d([m5C])[sp].d(T)[sp].d([m5C])[sp].d(A)[sp].[moe](T)p.[moe](G)p.[moe](T)[sp].[moe](G)}$$$$ (last 3' nucleoside missing)” the 3 h FOB score was 0 score 0-7. “RNA1{[moe](T)[sp].[moe](G)p.[moe](T)p.[moe](A)p.[moe]([m5C])[sp].d(T)[sp].d(T)[sp].d([m5C])[sp].d(A)[sp].d([m5C])[sp].d(A)[sp].d(T)[sp].d(T)[sp].[moe](T)p.[moe](G)p.[moe](G)[sp].[moe](A)}$$$$ (last 3' nucleoside missing)” was tested, and the 3 h FOB score was 3.5 score 0-7. With “RNA1{[moe](T)[sp].[moe](G)p.[moe](T)p.[moe](A)p.[moe]([m5C])[sp].d(T)[sp].d(T)[sp].d([m5C])[sp].d(A)[sp].d([m5C])[sp].d(A)[sp].d(T)[sp].d(T)[sp].d(T)[sp].d(G)[sp].[moe](G)p.[moe](A)p.[moe](G)[sp].[moe]([m5C])}$$$$ (last 3' nucleoside missing)” the 3 h FOB score was 3 score 0-7. “RNA1{[moe](T)[sp].[moe](G)p.[moe](T)p.[moe](A)p.[moe]([m5C])p.[moe](T)p.d(T)[sp].d([m5C])[sp].d(A)[sp].d([m5C])[sp].d(A)[sp].d(T)[sp].d(T)[sp].d(T)[sp].d(G)[sp].d(G)[sp].[moe](A)p.[moe](G)[sp].[moe]([m5C])}$$$$ (last 3' nucleoside missing)” gave a 3 h FOB score of 2.5 score 0-7. For “RNA1{[moe](T)[sp].[moe](G)p.[moe](T)p.[moe](A)p.[moe]([m5C])p.d(T)[sp].d(T)[sp].d(T)[sp].d(T)[sp].d([m5C])[sp].d(T)[sp].d([m5C])[sp].d(A)[sp].d(T)[sp].d(G)[sp].[moe](T)p.[moe](G)p.[moe]([m5C])[sp].[moe](G)}$$$$ (last 3' nucleoside missing)”, the 3 h FOB score was 1 score 0-7. In the case of “RNA1{[moe](T)[sp].[moe](G)p.[moe](T)p.[moe](A)p.[moe]([m5C])p.d(T)[sp].d(T)[sp].d([m5C])[sp].d(A)[sp].d(A)[sp].d(A)[sp].d(T)[sp].d(T)[sp].d(T)[sp].d(T)[sp].[moe](G)p.[moe](T)p.[moe](T)[sp].[moe](T)}$$$$ (last 3' nucleoside missing)”, the 3 h FOB score is reported as 0 score 0-7. Work on “RNA1{[moe](T)[sp].[moe](G)p.[moe](T)p.[moe](A)p.[moe]([m5C])p.d(T)[sp].d(T)[sp].d([m5C])[sp].d(A)[sp].d([m5C])[sp].d(A)[sp].d(T)[sp].d(T)[sp].d(T)[sp].d(G)[sp].[moe](G)p.[moe](A)p.[moe](G)[sp].[moe]([m5C])}$$$$ (last 3' nucleoside missing)” yielded a 3 h FOB score of 2 score 0-7. “RNA1{[moe](T)[sp].[moe](G)p.[moe](T)p.[moe](A)p.d([m5C])[sp].d(T)[sp].d(T)[sp].d([m5C])[sp].d(A)[sp].d([m5C])[sp].d(A)[sp].d(T)[sp].d(T)[sp].d(T)[sp].[moe](G)p.[moe](G)p.[moe](A)p.[moe](G)[sp].[moe]([m5C])}$$$$ (last 3' nucleoside missing)” was tested, and the 3 h FOB score was 1 score 0-7. Substance “RNA1{[moe](T)[sp].[moe](G)p.[moe](T)p.[moe](G)p.[moe](A)p.d(G)[sp].d(T)[sp].d(T)[sp].d([m5C])[sp].d(A)[sp].d([m5C])[sp].d([m5C])[sp].d(T)[sp].d(G)[sp].d([m5C])[sp].[moe](A)p.[moe](T)p.[moe]([m5C])[sp].[moe]([m5C])}$$$$ (last 3' nucleoside missing)” has a 3 h FOB score of 3.5 score 0-7. Substance “RNA1{[moe](T)[sp].[moe](G)p.[moe](T)p.[moe](G)p.[moe](T)p.d(A)[sp].d(T)[sp].d(T)[sp].d(T)[sp].d(T)[sp].d(T)[sp].d([m5C])[sp].d(T)[sp].d(T)[sp].d([m5C])[sp].[moe]([m5C])p.[moe](T)p.[moe]([m5C])[sp].[moe](A)}$$$$ (last 3' nucleoside missing)” has a 3 h FOB score of 0.25 score 0-7. “RNA1{[moe](T)[sp].[moe](G)p.[moe](T)p.[moe](G)p.[moe](T)p.d(T)[sp].d([m5C])[sp].d(A)[sp].d(T)[sp].d(G)[sp].d(A)[sp].d([m5C])[sp].d(T)[sp].d(T)[sp].d(T)[sp].[moe]([m5C])p.[moe](A)p.[moe](A)[sp].[moe](G)}$$$$ (last 3' nucleoside missing)” gave a 3 h FOB score of 4.5 score 0-7. “RNA1{[moe](T)[sp].[moe](G)p.[moe](T)p.[moe](T)p.[moe](A)p.d([m5C])[sp].d(T)[sp].d(G)[sp].d(T)[sp].d(T)[sp].d(T)[sp].d([m5C])[sp].d(G)[sp].d(A)[sp].d([m5C])[sp].[moe]([m5C])p.[moe](T)p.[moe]([m5C])[sp].[moe](T)}$$$$ (last 3' nucleoside missing)” showed a 3 h FOB score of 6.25 score 0-7.
